Experimental findings from DBAASP are described below.

Converted amounts (≈) assume the structure as drawn. Bounds are passed on as bounds.

Among the test systems are Staphylococcus aureus; Pseudomonas aeruginosa; Bacillus subtilis; Escherichia coli HB101; Salmonella typhimurium; Escherichia coli BW25113.
Assay in all cases: ≥ marks a high value that may be exact or a test limit, other limits are often not marked, values filed in µg/mL are converted to µM
For assay [1], the system named is Nocardia asteroides 201118.
Assay [2] concerns Staphylococcus aureus ATCC 25923.
The test system of assay [3] is Pseudomonas aeruginosa ATCC 47085.
Assay [4] concerns Escherichia coli ATCC 8739.
The subject of assay [5] is Klebsiella pneumoniae ATCC 13883.
Assay [6] has as its system Escherichia coli ATCC 25922.
The subject of assay [7] is Acinetobacter baumannii ATCC 19606.
Assay [8] deals with Staphylococcus aureus ATCC 29213.
The test system of assay [9] is Enterobacter cloacae HNTCC 53001.
Assay [10] relates to Staphylococcus aureus NCTC 8325.
Assay [11] has as its system Candida albicans ATCC 90028.
Assay [12] has as its system Staphylococcus epidermidis RP62A.
The test system of assay [13] is Enterococcus faecalis ATCC 29212.
Assay [14] relates to Pseudomonas aeruginosa ATCC 27853.
Assay [15] has as its system Proteus mirabilis ATCC 25933.
Assay [16] has as its system Klebsiella pneumoniae KK3 9904.
Assay [17] relates to Staphylococcus epidermidis ATCC 35984.
Assay [18] has as its system Staphylococcus aureus ATCC 33591.
The test system of assay [19] is Klebsiella pneumoniae ATCC 700603.
In assay [20] the test system is Escherichia coli BW25113 ΔsbmA.
For assay [21], the system named is Salmonella enterica subsp. enterica serovar Typhimurium ATCC 14028.
The subject of assay [22] is Corynebacterium glutamicum ATCC 13032.
For assay [23], the system named is Staphylococcus aureus ATCC 9144.

The term MIC denotes the least concentration at which growth counts as inhibited. As to `CC[C@H](C)[C@H](NC(=O)[C@H](C)NC(=O)CNC(=O)[C@@H](NC(=O)[C@H](CC(C)C)NC(=O)[C@H](CC(C)C)NC(=O)[C@@H]1CCCN1C(=O)[C@H](CC(C)C)NC(=O)[C@@H](N)Cc1ccccc1)C(C)C)C(=O)N[C@@H](CO)C(=O)N[C@@H](CO)C(=O)N[C@H](C(=O)N[C@@H](CC(C)C)C(=O)N1CCC[C@H]1C(=O)N[C@@H](CCCCN)C(=O)N[C@H](C(=O)N[C@@H](Cc1ccccc1)C(N)=O)[C@@H](C)CC)[C@@H](C)CC` [FLPLLVGAISSILPKIF], the results for the MIC in assay [1] and in [2] were 6.3 µM (≈ 11.5 µg/mL) and 12.5 µM (≈ 22.8 µg/mL), respectively.
Turning to `CC[C@H](C)[C@H](NC(=O)CN)C(=O)NCC(=O)N[C@@H](C)C(=O)N[C@H](C(=O)N[C@@H](CC(C)C)C(=O)N[C@@H](CCCCN)C(=O)N[C@H](C(=O)N[C@@H](CC(C)C)C(=O)N[C@H](C(=O)N[C@H](C(=O)NCC(=O)N[C@@H](CC(C)C)C(=O)N1CCC[C@H]1C(=O)N[C@@H](C)C(=O)N[C@@H](CC(C)C)C(=O)N[C@H](C(=O)N[C@@H](CO)C(=O)N[C@@H](Cc1c[nH]c2ccccc12)C(=O)N[C@H](C(=O)N[C@@H](CCCCN)C(=O)N[C@@H](CCCN=C(N)N)C(=O)N[C@@H](CCCCN)C(=O)N[C@@H](CCCN=C(N)N)C(=O)N[C@@H](CCC(N)=O)C(=O)N[C@@H](CCC(N)=O)C(=O)O)[C@@H](C)CC)[C@@H](C)CC)[C@@H](C)O)[C@@H](C)O)C(C)C)C(C)C` [GIGAVLKVLTTGLPALISWIKRKRQQ], the MIC turned out to be 4.9 µM (≈ 14 µg/mL) in [3]; 4.52 µM (≈ 12.9 µg/mL) in assay [4]; 3.5 µM (≈ 9.97 µg/mL) in assay [5]; 6.3 µM (≈ 17.9 µg/mL) in [6]; 4.1 µM (≈ 11.7 µg/mL) in [7]; 3.83 µM (≈ 10.9 µg/mL) in [8].
For `CC[C@H](C)[C@H](NC(=O)CNC(=O)[C@H](CCCCN)NC(=O)[C@H](Cc1ccccc1)NC(=O)[C@@H](NC(=O)[C@H](CCCCN)NC(=O)[C@H](CCCCN)NC(=O)[C@H](CC(C)C)NC(=O)[C@H](C)NC(=O)[C@H](CCCCN)NC(=O)[C@H](CC(C)C)NC(=O)CN)C(C)C)C(=O)N[C@@H](Cc1cnc[nH]1)C(=O)N[C@@H](CCCCN)C(=O)N[C@@H](C)C(=O)N[C@H](C(=O)N[C@@H](CCCCN)C(=O)N[C@@H](CC(C)C)C(=O)N[C@H](C(=O)N[C@@H](CC(N)=O)C(=O)N[C@@H](CC(N)=O)C(=O)N[C@@H](Cc1cnc[nH]1)C(=O)N[C@H](C(=O)N[C@@H](CCC(N)=O)C(=O)O)C(C)C)[C@@H](C)CC)[C@@H](C)CC` [GLKALKKVFKGIHKAIKLINNHVQ], the MIC is 5 µM (≈ 13.5 µg/mL) in [9]; 5 µM (≈ 13.5 µg/mL) in assay [6]; 20 µM (≈ 54 µg/mL) in [10]; at least 80 µM in [11]; 10 µM (≈ 27 µg/mL) in assay [12]; over 80 µM in [13]. Moreover, the MIC in [14] is 5 µM (≈ 13.5 µg/mL); in [15], at least 80 µM; in assay [16] it was 5 µM (≈ 13.5 µg/mL).
Consider `CC[C@H](C)[C@H](NC(=O)[C@@H](NC(=O)[C@@H]1CCCN1C(=O)[C@@H](NC(=O)[C@@H]1CCCN1C(=O)[C@H](CCCCN)NC(=O)[C@H](CCCCN)NC(=O)[C@H](CO)NC(=O)CN)C(C)C)[C@@H](C)CC)C(=O)N[C@@H](Cc1ccc(O)cc1)C(=O)N[C@H]1CSSC[C@@H](C(=O)N[C@@H](CCC(N)=O)C(=O)N[C@@H](CCCN=C(N)N)C(=O)N[C@@H](CCSC)C(=O)O)NC(=O)[C@H](CCCCN)NC(=O)[C@H]([C@@H](C)O)NC(=O)[C@H](CCCN=C(N)N)NC(=O)[C@H](CCCN=C(N)N)NC(=O)[C@H](CC(N)=O)NC1=O` [GSKKPVPIIYCNRRTKCQRM], for which the MIC came to 20.8 µM (≈ 49.4 µg/mL) against Staphylococcus aureus; 5.2 µM (≈ 12.4 µg/mL) against Pseudomonas aeruginosa; 5.2 µM (≈ 12.4 µg/mL) against Bacillus subtilis; 2.6 µM (≈ 6.18 µg/mL) with Escherichia coli HB101; 1.3 µM (≈ 3.09 µg/mL) against Salmonella typhimurium.
As to `CC(C)[C@H](NC(=O)[C@H](Cc1ccccc1)NC(=O)[C@H](C)NC(=O)[C@H](CCCCN)NC(=O)CNC(=O)[C@H](Cc1ccccc1)NC(=O)[C@H](CCCCN)NC(=O)[C@H](CCCCN)NC(=O)[C@H](C)NC(=O)[C@H](CCCCN)NC(=O)[C@@H](N)CCCCN)C(=O)N[C@@H](CCCCN)C(N)=O` [KKAKKFGKAFVK], the MIC in assay [2] is over 371 µM; in assay [17], at least 371 µM; in assay [18], at least 371 µM; in assay [14], over 371 µM.
Consider `CC[C@H](C)[C@H](NC(=O)[C@@H]1CCCN1C(=O)[C@@H]1CCCN1C(=O)[C@H](CCCN=C(N)N)NC(=O)[C@H](Cc1ccccc1)NC(=O)[C@@H](N)CCCN=C(N)N)C(=O)N[C@@H](CCCN=C(N)N)C(=O)N[C@@H](CCCN=C(N)N)C(=O)N1CCC[C@H]1C(=O)N1CCC[C@H]1C(=O)N[C@H](C(=O)N[C@@H](CCCN=C(N)N)C(=O)N1CCC[C@H]1C(=O)N1CCC[C@H]1C(=O)N[C@@H](Cc1ccccc1)C(=O)N[C@@H](Cc1ccc(O)cc1)C(=O)N1CCC[C@H]1C(=O)N1CCC[C@H]1C(=O)N[C@@H](Cc1ccccc1)C(=O)N[C@@H](CCCN=C(N)N)C(=O)N1CCC[C@H]1C(=O)O)[C@@H](C)CC` [RFRPPIRRPPIRPPFYPPFRP], for which the MIC is 2 µM (≈ 5.32 µg/mL) in the assay on Escherichia coli BW25113; over 64 µM in assay [2]; 4 µM (≈ 10.6 µg/mL) in assay [6]; 32 µM (≈ 85.1 µg/mL) in assay [19]; 16 µM (≈ 42.6 µg/mL) in assay [7]; 16 µM (≈ 42.6 µg/mL) in [20]. The MIC in [14] is over 64 µM; in assay [21] it was 8 µM (≈ 21.3 µg/mL).
For the compound `CC[C@H](C)[C@H](NC(=O)[C@@H]1CCCN1C(=O)[C@H](CCCCN)NC(=O)[C@@H]1CCCN1C(=O)[C@H](CCCN=C(N)N)NC(=O)CNC(=O)[C@@H]1CCCN1C(=O)[C@H](Cc1ccccc1)NC(=O)[C@@H]1CCCN1C(=O)[C@H](CCCN=C(N)N)NC(=O)[C@@H]1CCCN1C(=O)[C@H](CCCN=C(N)N)NC(=O)CNC(=O)[C@@H]1CCCN1C(=O)[C@H](CO)NC(=O)[C@@H]1CCCN1C(=O)[C@H](Cc1c[nH]c2ccccc12)NC(=O)[C@H](CCCN=C(N)N)NC(=O)[C@@H](N)CO)C(=O)N[C@@H](Cc1ccccc1)C(=O)N[C@@H](CCCN=C(N)N)C(=O)N1CCC[C@H]1C(=O)N[C@@H](CCCN=C(N)N)C(=O)O` [SRWPSPGRPRPFPGRPKPIFRPR], the MIC was 0.8 µM (≈ 2.19 µg/mL) in assay [22]; 6.3 µM (≈ 17.3 µg/mL) in assay [6]; 3.1 µM (≈ 8.5 µg/mL) with Escherichia coli HB101; at least 100 µM in assay [23]; 12.5 µM (≈ 34.3 µg/mL) in assay [14].
